Source: patent publication US6740305B1, “Assessment of gastric emptying disorders” (Xanthus Life Scienes, Inc., priority 1999, dated 2004)

Columns and labels:
[1] = set-up: species or system human; settings: in vivo, 1.5 mg/kg
From the text: In accordance with the present invention, the solid food to be checked and swallowed as the meal for a gastric emptying test is in the form of an edible, egg fortified muffin from a microwaveable recipe, freshly prepared prior to use. The base formulation consists of a bulk mix containing 92 grams of powdered, defatted milk; 320 grams of apple flavored instant muffin mix, 80 grams of finely grated Parmesan cheese and 0.6 gram of pulverized L-2-oxo[^13C]thiazolidine-4-carboxylic acid (OTZ) tracer probe. The mixture is homogenized in a food mill and stored in individual portions of 61.625 grams. Prior to cooking, the individual muffin mix is reconstituted in a microwaveable plastic dish with 110 ml of water and 61 grams of defatted egg substitute and then thoroughly blended and allowed to stand covered for 0.5 hour at room temperature. After shaking well, the mixture is uncovered and microwaved in a 500 watt oven for 4 minutes at medium power, rotated 120 degrees, and again microwaved for 4 minutes. The muffin is loosened around the edges, allowed to cool, and removed from the cooking container. […]
The samples are analyzed for isotopic content and corrected for interindividual differences in endogenous CO2 production rate in order to obtain the appropriate data points. […]

gastric emptying = test: Breath test with liquid test meal given with drugs known to accelerate or delay gastric emptying (FIG. 6); assay type: in vivo, human; settings: [acyl]^13C-leucine as emptying probe
From the text: In FIG. 6 summarizing this experiment, metoclopramide is shown as a prokinetic agent. Similarly, loperamide is shown to delay emptying.

Absorption kinetics from appearance pattern of ^13CO2 in breath [1] | T1/2 (half-emptying time) [1] | SMILES | Effect on gastric emptying (gastric emptying)
zero-order absorption kinetics | 19 +/− 4 | O=C(O)[C@@H]1CS[13C](=O)N1 [2-[^13C -OTZ, L-2-oxo[^13C]thiazolidine-4-carboxylic acid] | –
– | – | CN(C)C(=O)C(CCN1CCC(O)(c2ccc(Cl)cc2)CC1)(c1ccccc1)c1ccccc1 [loperamide] | emptying times trending toward greater than normal half-emptying values
– | – | CCN(CC)CCNC(=O)c1cc(Cl)c(N)cc1OC [Metoclopramide, metoclopramide] | accelarated the gastric emptying profile in a statistically significant manner
